The source of these data is US9278100B2, “Inhibitors of bruton's tyrosine kinase for the treatment of solid tumors” (Pharmacyclics LLC, priority 2008, dated 2016).

In one data set the target is HER4 (Homo sapiens (Human), UniProt Q15303). Description: HotSpot kinase assay, HER4. The class given is biochemical. Particulars: Table 1, first of two rows printed HER4; 1 uM ATP.
The target in data set [1] is Tec family kinases, including Btk, and Src family kinases. Nature of the data set: In vitro profiling against a panel of greater than 100 kinases. It is filed as biochemical. From the text:
By way of example only and in some embodiments, the observed potency, selectivity, and cell permeability of compounds such as Compound 2 are appropriate to incorporate these molecules into a Kinase-targeted, activity based probe that allows direct visualization of Kinase activity in intact cells. […] Without limiting the scope of the compositions and methods described herein, it is postulated that the structural basis for the selectivity is covalent modification of a non-catalytic cysteine residue (Cys 481 in Btk) that is conserved in the ATP binding pocket of the Tec family and several other kinases.

In data set [2] the test system is Btk expressing B cell lymphoma cell lines. Nature of the data set: Sensitivity of a panel of nine Btk expressing B cell lymphoma cell lines. The class given is cell-based. Particulars: two cell lines with low pERK levels. As to the method: After 72 hours, cell number was measured using Alamar Blue using manufacturer's protocol. A dilution series of untreated cells was run in parallel to verify that the Alamar Blue assay reliably reflected cell number and that growth conditions, were not limiting. […] GI50 values were confirmed in two or more separate experiments for each cell line.
A panel of nine Btk expressing B cell lymphoma cell lines was screened for basal pERK levels.

For another data set, the system named is Ramos. Description: Sensitivity of Ramos cell line. The class given is cell-based. An excerpt:
To identify biomarkers that correlate with response to Compound 1, phosphorylation events in the BCR signal transduction pathway were investigated.

The subject of the next data set is proteinuria. Description: Mouse MRL/lpr model of lupus. It is filed as in vivo, MRL/lpr mice. The settings on record: 3.125 mg/kg, 12.5 mg/kg, and 50 mg/kg orally once per day.
For a further data set, the system named is mast cell degranulation. Nature of the data set: Mouse passive cutaneous anaphylaxis model. Particulars: increasing doses, single oral dose. It is filed as in vivo. The procedure:
(FIG. 4) Mice were sensitized with an intradermal injection of monoclonal anti-DNP-IgE in the back. […] After one hour, animals were challenged with an intravenous injection of DNP-BSA and Evans Blue dye. Mast cell degranulation leads to vascular permeability and the distribution of the dye into the skin of the back. The area of extravasation after 1 hour is measured.

A short description of data set [3]: Plasma concentrations in orally dosed rats. Particulars: rat, 8 mg/kg single dose by oral gavage, in combination. It is filed as in vivo, Male jugular vein cannulated rats. As to the method: Male jugular vein cannulated rats were administered a single dose of all test compounds at 8 mg/kg each, in combination by oral gavage. Dose volumes were adjusted based on body weight data collected immediately prior to dosing. Blood samples were collected at 0.0833 (5 minutes), 0.333 (20 minutes), 1, 3, 6, 9, and 24 hours post-dosing from orally dosed rats. The samples were collected into plasma separator Microtainer tubes with anticoagulant (lithium heparin). Plasma samples were prepared by centrifugation (5 min at 5000×g), and at least 100 μL were transferred to storage tubes and stored frozen at −80° C. Plasma samples were thawed and 75 uL aliquots were transferred to centrifuge tubes to which 10 μL aliquots of internal standard solution (1 μg/mL) were added. The samples were not diluted with blank plasma prior to further processing. Soluble proteins were precipitated by the addition of 200 μL of acetonitrile, followed by centrifugation (20 min at 16,000×g). The samples were evaporated to dryness and reconstituted in 200 μL of water containing 0.2% formic acid and 10% methanol. All samples were loaded onto an autosampler maintained at 6° C. and evaluated for concentrations of test compounds using LC-MS/MS.

The test system of another data set is normal human B cells. Description: B cell activation after brief exposure and washout (CD69). It is filed as cell-based. Particulars: 1 hour exposure, washed three times, IgM F(ab')2 stimulation 18 hours. The procedure:
B cells were purified from blood from healthy donors by negative selecting using the RosetteSep Human B cell enrichment cocktail. […] After incubation for 1 hour at 37° C., cells were washed three times using an 8-fold dilution in growth media for each wash. Cells were then stimulated with 10 ug/ml of IgM F(ab′)2 for 18 hours at 37° C. Cells were then stained with anti-CD69-PE antibody and analyzed by flow cytometry using standard conditions.

A further data set concerns MDA-MB-453 xenograft. Description: MDA-MB-453 breast cancer xenograft. The class given is in vivo, nude mice. Particulars: 50 mg/kg or 5 mg/kg daily, tumor volume (FIG. 8). From the text:
An MDA-MB-453 breast cancer xenograft was implanted under the skin of a nude mouse. […] The volume of the tumor xenograft was monitored daily.

In another data set the target is BTK (Homo sapiens (Human), UniProt Q06187). Nature of the data set: HotSpot kinase assay, BTK. The settings on record: Table 2; 1 uM ATP, one hour incubation with inhibitor. The class given is biochemical.
BTK, sequence (Q06187 whole entry): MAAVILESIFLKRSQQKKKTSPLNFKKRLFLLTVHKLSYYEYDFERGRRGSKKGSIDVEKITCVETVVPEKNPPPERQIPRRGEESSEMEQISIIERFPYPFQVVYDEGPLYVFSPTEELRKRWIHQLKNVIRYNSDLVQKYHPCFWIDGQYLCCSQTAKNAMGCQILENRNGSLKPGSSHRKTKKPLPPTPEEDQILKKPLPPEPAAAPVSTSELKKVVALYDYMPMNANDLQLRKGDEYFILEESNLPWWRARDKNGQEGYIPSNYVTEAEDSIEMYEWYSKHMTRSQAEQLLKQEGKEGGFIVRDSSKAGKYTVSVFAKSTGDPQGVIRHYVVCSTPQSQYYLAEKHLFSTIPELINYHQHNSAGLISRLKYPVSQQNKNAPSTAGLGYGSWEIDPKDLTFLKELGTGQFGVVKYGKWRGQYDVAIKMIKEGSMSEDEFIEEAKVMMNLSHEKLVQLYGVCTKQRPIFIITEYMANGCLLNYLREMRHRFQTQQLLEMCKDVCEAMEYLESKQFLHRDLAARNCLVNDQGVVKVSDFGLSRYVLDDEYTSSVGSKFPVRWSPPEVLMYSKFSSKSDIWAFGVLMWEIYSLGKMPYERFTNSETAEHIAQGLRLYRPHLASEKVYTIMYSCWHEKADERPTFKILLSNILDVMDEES

HER4, sequence (Q15303 other isoform, or with tags, fused parts or gaps): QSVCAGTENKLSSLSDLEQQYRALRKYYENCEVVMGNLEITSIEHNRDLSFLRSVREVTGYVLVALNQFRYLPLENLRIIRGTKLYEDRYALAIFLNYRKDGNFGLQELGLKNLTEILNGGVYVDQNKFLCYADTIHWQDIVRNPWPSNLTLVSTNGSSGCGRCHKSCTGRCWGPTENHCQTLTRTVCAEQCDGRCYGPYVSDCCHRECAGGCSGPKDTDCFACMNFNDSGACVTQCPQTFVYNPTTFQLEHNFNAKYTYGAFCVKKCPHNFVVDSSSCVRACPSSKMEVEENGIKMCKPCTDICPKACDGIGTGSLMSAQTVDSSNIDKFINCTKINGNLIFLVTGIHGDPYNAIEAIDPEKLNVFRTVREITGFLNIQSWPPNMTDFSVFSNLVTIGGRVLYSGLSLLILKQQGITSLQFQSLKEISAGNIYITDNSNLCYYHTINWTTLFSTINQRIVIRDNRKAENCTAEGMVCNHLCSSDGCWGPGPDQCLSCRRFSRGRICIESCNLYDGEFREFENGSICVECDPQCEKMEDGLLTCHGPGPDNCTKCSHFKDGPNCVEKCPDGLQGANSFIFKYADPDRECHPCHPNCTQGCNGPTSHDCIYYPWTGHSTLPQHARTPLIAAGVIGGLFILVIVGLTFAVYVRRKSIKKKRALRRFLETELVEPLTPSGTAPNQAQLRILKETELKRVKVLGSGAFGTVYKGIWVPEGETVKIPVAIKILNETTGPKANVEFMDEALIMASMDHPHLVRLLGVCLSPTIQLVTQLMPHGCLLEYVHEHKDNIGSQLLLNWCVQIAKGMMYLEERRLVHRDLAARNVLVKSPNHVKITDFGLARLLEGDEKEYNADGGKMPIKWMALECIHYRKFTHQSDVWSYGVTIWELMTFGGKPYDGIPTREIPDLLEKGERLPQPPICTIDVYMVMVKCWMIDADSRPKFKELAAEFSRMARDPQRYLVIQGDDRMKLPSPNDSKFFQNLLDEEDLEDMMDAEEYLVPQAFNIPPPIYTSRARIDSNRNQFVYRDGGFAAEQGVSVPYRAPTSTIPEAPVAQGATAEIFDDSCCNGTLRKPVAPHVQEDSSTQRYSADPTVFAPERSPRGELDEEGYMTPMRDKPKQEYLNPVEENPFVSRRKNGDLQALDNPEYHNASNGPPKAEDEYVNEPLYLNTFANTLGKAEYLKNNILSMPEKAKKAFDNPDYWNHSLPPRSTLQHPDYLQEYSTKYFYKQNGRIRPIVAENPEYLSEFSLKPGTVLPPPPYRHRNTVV

The IC50 is the concentration needed to halve the response being measured. Consider `C=CC(=O)N[C@H]1CC[C@@H](n2nc(-c3ccc(Oc4ccccc4)cc3)c3c(N)ncnc32)CC1` [Compound 9], for which 1540 nM corresponded to half-maximal inhibition against HER4 (IC50).
With `CN(C)C/C=C/C(=O)N1CCC[C@@H](n2nc(-c3ccc(Oc4ccccc4)cc3)c3c(N)ncnc32)C1` [Compound 2], the kinase panel profile result in data set [1] is “highly potent and selective inhibitor of Tec family kinases”.
Regarding `C=CC(=O)N1CCC[C@@H](n2nc(-c3ccc(Oc4ccccc4)cc3)c3c(N)ncnc32)C1` [Compound 1], the sensitivity to compound entry (in data set [2]; in the data set with Ramos) was “resistant” in each case. Further, the proteinuria result in the data set with proteinuria is reported as “significantly reduced proteinuria”. Besides, in the data set on mast cell degranulation, the “amount of Evans Blue release” value is recorded as “significantly decrease the amount of Evans Blue release”. In [3], the in vivo half-life result is recorded as “short half-life”. The “inhibition of B cell activation” value in the data set on normal human B cells is “sufficient to inhibit B cell activation”. For the same compound, the efficacy in xenograft entry with MDA-MB-453 xenograft is “efficacy”.
As to `CN(C)C/C=C/C(=O)N1CCC[C@H]1Cn1nc(-c2ccc(Oc3ccccc3)cc2)c2c(N)ncnc21` [Compound 12, (E)-1-((S)-2-((4-amino-3-(4-phenoxyphenyl)-1H-pyrazolo[3,4-d]pyrimidin-1-yl)methyl)pyrrolidin-1-yl)-4-(dimethylamino)but-2-en-1-one], the in vivo half-life entry in data set [3] was “short half-life”.
The compound `CN(C/C=C/C(=O)N1CCCC(n2nc(-c3ccc(Oc4ccccc4)cc3)c3c(N)ncnc32)C1)CCO` (centres unmarked) [Compound 3] yielded an IC50 against BTK of 21 nM.
